The values that follow come from PMC12040169 (PLOS Biology, 2025).

SMILES strings stand for the structures.

The series in a line: in vitro. The conditions noted are these: human, hela cells, % viability.

Turning to `CN(C)CC(=O)NC(Cc1ccsc1)c1nccs1` (stereo not drawn) [CBK284801], the viability at 28.5 h, 10 µM came to 91.4%.

With `Cc1cc(/C=N/O)c(C)c(COCc2cc(C)cc(/C=N/O)c2C)c1` [CBK261770], the viability at 28.5 h, 10 µM came to 91.2%.

For the compound `CCOc1ncccc1NC(=O)Cc1cccc(OC)c1` [CBK256406], the viability at 28.5 h, 10 µM worked out at 94.8%.

As to `FC(F)(F)c1ccnc(SCCOc2ccccc2)n1` [CBK103721], the viability at 28.5 h, 10 µM was found to be 73.9%.

With `Cc1ccccc1NS(=O)(=O)c1ccc(OCC(=O)N2CCN(c3cc(Cl)ccc3C)CC2)cc1` [CBK267649], the viability at 28.5 h, 10 µM is 94.5%.

`COc1ccc(CCNc2nc(-c3ccccn3)cs2)cc1OC` [CBK267260]: the viability at 28.5 h, 10 µM was 100%.

As for `O=C(O)C(c1c[nH]c2ccc(OCc3ccccc3)cc12)N1CCCC1` (stereo not drawn) [CBK286686], the viability at 28.5 h, 10 µM came out at 97.6%.

As for `Cc1cc(CC(=O)NCCCn2ccnc2C(C)C)on1` [CBK307270], the viability at 28.5 h, 10 µM worked out at 99.7%.

`C=CCn1c(-c2sc(NC(=O)c3ccc(C)c(C)c3)nc2C)n[nH]c1=S` [CBK295294]: the viability at 28.5 h, 10 µM turned out to be 88.7%.

Turning to `COc1ccc(-c2c3c(nc4sc(C#N)c(N)c24)CCCC3)cc1` [CBK270279], the viability at 28.5 h, 10 µM came out at 80%.

For `CC(=O)Nc1ccc(S(=O)(=O)N(C)c2ccccn2)cc1Cl` [CBK044789], the viability at 28.5 h, 10 µM turned out to be 94.5%.

As to `Nc1nnc(SCC(=O)NCc2ccc3c(c2)OCO3)s1` [CBK267853], the viability at 28.5 h, 10 µM was 101%.

As to `CCC(C)(C)c1nnc(NC(=O)COc2ccc(Cl)cc2Cl)s1` [CBK058435], the viability at 28.5 h, 10 µM was 103%.

With `O=[N+]([O-])c1cc(F)ccc1Oc1cccc2c1CCCC2` [CBK002559], the viability at 28.5 h, 10 µM came to 93.5%.

As for `Cc1nc(C)c(C(=O)NCc2cccnc2N(C)C2CCCCC2)s1` [CBK306885], the viability at 28.5 h, 10 µM stood at 95%.

Regarding `Cc1noc(C)c1S(=O)(=O)Nc1c(C(=O)O)sc2ncccc12` [CBK049988], the viability at 28.5 h, 10 µM was 99.5%.

On to `Cc1cc(F)c(S(N)(=O)=O)cc1NC(=O)c1cccc(Br)c1` [CBK051488], for which the viability at 28.5 h, 10 µM was 90.9%.

Consider `Cc1ccc(/C=C/C(=O)O)cc1S(=O)(=O)N1CCCc2ccccc21` [CBK264425], for which the viability at 28.5 h, 10 µM amounted to 101%.

With `Cc1c(NC(=O)c2ccccc2Cl)c(=O)n(-c2ccccc2)n1C` [CBK088068], the viability at 28.5 h, 10 µM came to 105%.

Take `NCCNCCNCCN` [CBK023985C]: the viability at 28.5 h, 10 µM was 93.2%.

Consider `O=C(CC1Sc2ccccc2NC1=O)Nc1ccc(C(F)(F)F)cc1` (stereo not drawn) [CBK287585], for which the viability at 28.5 h, 10 µM is 88.6%.

As to `CC(=O)N1CC(C(=O)Nc2nc3c(C)cc(C)cc3s2)C1` [CBK281372], the viability at 28.5 h, 10 µM stood at 95.9%.

For the compound `COc1cccc(CC(=O)N2CCCC2c2nc3ccccc3[nH]2)c1` (stereo not drawn) [CBK283665], the viability at 28.5 h, 10 µM worked out at 99.8%.

As for `Cc1ccnc2nc(C(=O)Nc3ccc4c(c3)CCC4)nn12` [CBK295194], the viability at 28.5 h, 10 µM amounted to 74.9%.

Regarding `COC(=O)c1ccc(S(=O)(=O)n2ccn(-c3cccc(C(F)(F)F)c3)c2=O)n1C` [CBK106594], the viability at 28.5 h, 10 µM was determined as 90.1%.

In the case of `O=C(O)c1ccc(/C=N/Nc2nc(N3CCOCC3)nc(N3CCOCC3)n2)cc1` [CBK262433], the viability at 28.5 h, 10 µM is 99%.

As to `CC1CCN(S(=O)(=O)c2cccc(C(=O)NNC(=O)c3cccc([N+](=O)[O-])c3)c2)CC1` [CBK266774], the viability at 28.5 h, 10 µM turned out to be 98%.

As for `OCCNc1ncnc2c1ncn2Cc1ccccc1` [CBK287933], the viability at 28.5 h, 10 µM worked out at 106%.

As to `COc1ccc2c(c1)CCN=C2C[C@H]1CN(C(=O)C(C)(C)C)CC[C@H]1CC(=O)O` [CBK289155], the viability at 28.5 h, 10 µM was 92.5%.

As for `O=C(O)c1ccc(N2C(=O)C(=Cc3c4ccccc4cc4ccccc34)SC2=S)cc1` [CBK296101], the viability at 28.5 h, 10 µM worked out at 85.9%.

On to `CN1CCN(C(=O)CN(CC(=O)N2CCN(C)CC2)S(=O)(=O)c2ccc(Cl)cc2)CC1` [CBK269627], for which the viability at 28.5 h, 10 µM is 96.6%.

In the case of `CCOC(=O)CNC(=O)Nc1cc2ccccc2c(Br)n1` [CBK063279], the viability at 28.5 h, 10 µM stood at 92.5%.

As for `COc1ccc(C(NC(=O)CC2CCN(c3nc(C)cc(C)n3)CC2)C2CC2)cc1` (stereo not drawn) [CBK285994], the viability at 28.5 h, 10 µM amounted to 93.4%.

Turning to `O=C(Nc1cccnc1)C1CCN(S(=O)(=O)c2ccc(Oc3ccccc3)cc2)CC1` [CBK269621], the viability at 28.5 h, 10 µM worked out at 81.8%.

As for `CN(C)CC(C)(C)CNC(=O)c1cnc2cc(Cl)ccc2c1O` [CBK107357], the viability at 28.5 h, 10 µM was 97%.

Regarding `COCc1cn(C2CCN(c3cc(-n4cc(C)cn4)ncn3)CC2)nn1` [CBK307388], the viability at 28.5 h, 10 µM was found to be 92.9%.

Consider `Fc1ccc(-n2nnnc2SCc2ccc(Cl)cc2)cc1Cl` [CBK102075], for which the viability at 28.5 h, 10 µM came to 97.5%.

For `COc1ccc(-c2nc3ccccn3c2CN2CCC(C(=O)O)CC2)cc1` [CBK287052], the viability at 28.5 h, 10 µM is 88.4%.

Regarding `CCn1cc(-c2cncn2CCCn2ccnc2C(C)C)cn1` [CBK282244], the viability at 28.5 h, 10 µM was 89.4%.

For the compound `Cc1nc(CN2CCN(CCc3ccccc3)CC2)cs1` [CBK126457], the viability at 28.5 h, 10 µM was 87.6%.

On to `COCCC1CN(c2nc(N(C)C)nc3c2CCN(C(C)=O)C3)CCO1` (stereo not drawn) [CBK307464], for which the viability at 28.5 h, 10 µM came out at 82.2%.

Turning to `Cc1cccc(N2CCOC3(CCCC3)C2)n1` [CBK304446], the viability at 28.5 h, 10 µM was 82.1%.

`O=C1CCC(=O)N1CCN1C(=O)C2(CC(=O)N(CCC(F)(F)F)C2=O)c2ccccc21` (stereo not drawn) [CBK076031]: the viability at 28.5 h, 10 µM was found to be 105%.

Consider `c1cc(-c2cnn(-c3ccc4c(c3)CCO4)n2)cs1` [CBK112861], for which the viability at 28.5 h, 10 µM came out at 93.4%.

As to `O=S(=O)(/C=C/c1ccccc1)Nc1cccc2[nH]ccc12` [CBK155772], the viability at 28.5 h, 10 µM is 103%.

With `CCN1CCN(C(=O)c2ccc(C)c(S(=O)(=O)Nc3cccc(C)c3)c2)CC1` [CBK268226], the viability at 28.5 h, 10 µM stood at 109%.

Turning to `Cc1cccc(C(=O)Nc2nnc(-c3ccncc3)o2)c1` [CBK287430], the viability at 28.5 h, 10 µM was 91.5%.

As to `CC(CN1CCOCC1)NS(=O)(=O)c1cccc(C(=O)N2CCCC2)c1` (stereo not drawn) [CBK307053], the viability at 28.5 h, 10 µM is 107%.

`Cc1cccn2cc(C(=O)N(C)CCn3ccnc3C)nc12` [CBK281735]: the viability at 28.5 h, 10 µM is 91.7%.

Consider `O=C(NCC1COc2ccccc2O1)NC(=O)C1CCNCC1` (stereo not drawn) [CBK051096], for which the viability at 28.5 h, 10 µM came out at 91.6%.

Turning to `Nc1ncc(-c2cc(C(F)(F)F)cc(C(F)(F)F)c2)nc1NCc1ccco1` [CBK063689], the viability at 28.5 h, 10 µM was determined as 91.6%.

For `O=C(Nc1cccc([N+](=O)[O-])c1)c1ccc(CSc2ccccc2)cc1` [CBK265295], the viability at 28.5 h, 10 µM amounted to 117%.

Turning to `Cc1cn2nc(N3CCN(S(=O)(=O)c4ccccc4[N+](=O)[O-])CC3)sc2n1` [CBK298288], the viability at 28.5 h, 10 µM turned out to be 111%.

In the case of `COc1ccc(Br)cc1S(=O)(=O)Nc1c(C(=O)O)sc2ncccc12` [CBK049978], the viability at 28.5 h, 10 µM is 88%.

Consider `COc1ccccc1N1CCN(c2ccc([N+](=O)[O-])cc2C(=O)O)CC1` [CBK286692], for which the viability at 28.5 h, 10 µM came to 96.3%.

Consider `Cn1ccnc1[S+]([O-])Cc1nc2ccccc2s1` (stereo not drawn) [CBK005549], for which the viability at 28.5 h, 10 µM amounted to 91.5%.

In the case of `NC(=O)CC[C@H](N)C(=O)N1CC[C@@H]2NC(=O)[C@H](Cc3ccccc3)NC(=O)C3(C/C=C/C[C@@H]2C1)CCOCC3` [CBK292199], the viability at 28.5 h, 10 µM is 109%.

As a reminder, the viability is a read-out of living cells in per cent, often relative to untreated cells.
